Converted amounts (≈) assume the structure as drawn. Structures can show the parent of a compound that is named as a salt. Where two headings read alike, the source gives them in different places.
Legend:
Type in all cases: cell-based
[1] = test system: Streptococcus pneumoniae clinical isolates representing several serotypes; assay: MIC determination, Streptococcus pneumoniae panel of clinical isolates (Table 7); conditions: Streptococcus pneumoniae
[2] = test system: Stenotrophomonas maltophilia (ATCC 13637); assay: MIC determination, microbroth dilution
[3] = test system: Escherichia coli (ATCC 700926); assay: MIC determination, microbroth dilution; conditions: ATCC700926; Escherichia coli (ATCC 700926); read-out: MIC E.c.
[4] = test system: Klebsiella pneumoniae (ATCC 33495); assay: MIC determination, microbroth dilution; conditions: ATCC33495
[5] = test system: Proteus vulgaris (ATCC 33420); assay: MIC determination, microbroth dilution; conditions: ATCC33420
[6] = test system: Bacillus anthracis, Sterne 34F2; assay: microbe, parasite or virus in culture; conditions: STERNE34F2, read-out: MIC B.a.
[7] = test system: Streptococcus pneumoniae (R6); assay: MIC determination, microbroth dilution
[8] = test system: acinetobacter baumannii (ATCC 19606); assay: MIC determination, microbroth dilution; conditions: ATCC19606
[9] = test system: Bacillus subtilis (ATCC 23857); assay: MIC determination, microbroth dilution; conditions: ATCC23857; Bacillus subtilis (ATCC 23857); read-out: MIC B.s.
[10] = test system: M. tuberculosis clinical isolates; assay: microbe, parasite or virus in culture; conditions: Mycobacterium tuberculosis
[11] = test system: Neisseria meningitides (ATCC 13077); assay: Disc diffusion assay; conditions: ATCC13077, 4 μg per disc, read-out: Zone of inhibition N.m.
[12] = test system: Pseudomonas aeruginosa (PA01); assay: MIC determination, microbroth dilution
[13] = test system: Streptococcus pyogenes (ATCC 700294); assay: MIC determination, microbroth dilution; conditions: ATCC700294; Streptococcus pyogenes (ATCC 700294); read-out: MIC S. py.
[14] = test system: Bacillus anthracis; assay: microbe, parasite or virus in culture; conditions: read-out: MIC B.a.
[15] = test system: Listeria monocytogenes; assay: MIC determination (Table 6)
[16] = test system: Neisseria gonorrhoeae (ATCC 49226); assay: Agar MIC determination (Alamar Blue); conditions: ATCC49226, agar MIC, read-out: MIC N.g.
[17] = test system: Proteus mirabilis (ATCC 25933); assay: MIC determination, microbroth dilution; conditions: ATCC25933
[18] = test system: E. coli K12 ΔtolC; assay: microbe, parasite or virus in culture; conditions: Escherichia coli, read-out: MIC E.c. Δtolc
[19] = test system: Neisseria gonorrhoeae (ATCC 49226); assay: Disc diffusion assay; conditions: ATCC49226, 4 μg per disc, read-out: Zone of inhibition N.g.
[20] = test system: Legionella pneumophila (ATCC 33153); assay: microbe, parasite or virus in culture; conditions: ATCC33153, 72 h, read-out: Zone of inhibition L.p.
[21] = test system: Yersinia pestis; assay: microbe, parasite or virus in culture; conditions: read-out: MIC Y.p.
[22] = test system: Enterococcus faecalis (ATCC 33186); assay: MIC determination, microbroth dilution; conditions: ATCC33186; Enterococcus faecalis (ATCC 33186); read-out: MIC E.f.
[23] = test system: Moraxella catarrhalis; assay: MIC determination (Table 6)
[24] = test system: live vaccine strain (LVS) of Francisella tularensis; assay: microbe, parasite or virus in culture; conditions: Francisella tularensis
[25] = test system: Burkholderia cepacia (ATCC 25416); assay: MIC determination, microbroth dilution
[26] = test system: Haemophilus influenza (ATCC 49247); assay: microbe, parasite or virus in culture
[27] = test system: MRSA, Staphylococcus aureus (NRS70); assay: MIC determination, microbroth dilution; conditions: Staphylococcus aureus (NRS70); read-out: MIC MRSA
[28] = test system: Staphylococcus aureus (ATCC 29213); assay: MIC determination, microbroth dilution; conditions: ATCC29213; Staphylococcus aureus (ATCC 29213); read-out: MIC S.a.
[29] = S. pneumoniae Daw7, PenG Resistant, read-out: MIC Daw7
[30] = S. pneumoniae Daw8, PenG Resistant, read-out: MIC Daw8
[31] = S. pneumoniae Daw62, PenG Resistant, read-out: MIC Daw62
[32] = S. pneumoniae Daw64, PenG Resistant, read-out: MIC Daw64
[33] = ATCC13637, Stenotrophomonas maltophilia (ATCC 13637), read-out: MIC S.m.
[34] = Streptococcus pneumoniae (R6), read-out: MIC S. pn.
[35] = Burkholderia cepacia, ATCC25416, read-out: MIC B.c., Burkholderia cepacia (ATCC 25416)
[36] = Burkholderia cepacia, ATCC25416, read-out: MIC B.c., Burkholderia cepacia, Table 6
[37] = ATCC49247, Haemophilus influenza, 4 μg per disc, range of at least two experiments, read-out: Zone of inhibition H.i.

## CN[C@@H]1[C@H](O)[C@H](NC)[C@H]2O[C@@]3(O)C(=O)C[C@@H](C)O[C@H]3O[C@@H]2[C@H]1O [SPC, (2R,4aR,5aR,6S,7S,8R,9S,9aR,10aS)-4a,7,9-trihydroxy-2-methyl-6,8-bis(methylamino)decahydro-4H-benzo[b]pyrano[2,3-e][1,4]dioxin-4-one, reference compound]
[1]; BAA1407, read-out: MIC BAA-1407
  MIC: 12.5 µg/mL (≈ 37.6 µM)
[1]; read-out: MIC D39X
  MIC: 12.5 µg/mL (≈ 37.6 µM)
[1]; read-out: MIC Daw9
  MIC: 12.5 µg/mL (≈ 37.6 µM)
[1]; read-out: MIC OVA6
  MIC: 12.5 µg/mL (≈ 37.6 µM)
[1]; read-out: MIC T4X
  MIC: 12.5 µg/mL (≈ 37.6 µM)
[1]; S. pneumoniae A66.1x, Drug Susceptible, read-out: MIC A66.1x
  MIC: 6.3 µg/mL (≈ 19 µM)
[1]; S. pneumoniae BHN97x, Drug Susceptible, read-out: MIC BHN97x
  MIC: 6.3 µg/mL (≈ 19 µM)
[1]; [29]
  MIC: 25 µg/mL (≈ 75.2 µM)
[1]; [30]
  MIC: 25 µg/mL (≈ 75.2 µM)
[1]; [31]
  MIC: 25 µg/mL (≈ 75.2 µM)
[1]; [32]
  MIC: 25 µg/mL (≈ 75.2 µM)
[2]; [33]
  MIC: 50 to 200 µg/mL (≈ 150 to 602 µM)
[3]
  MIC: 25 to 50 µg/mL (≈ 75.2 to 150 µM)
[4]
  MIC: > 200 µg/mL
[5]
  MIC: 50 µg/mL (≈ 150 µM)
[6]
  MIC: 25 µg/mL (≈ 75.2 µM)
[7]; Streptococcus pneumoniae, read-out: MIC R6
  MIC: 12.5 µg/mL (≈ 37.6 µM)
[7]; Streptococcus pneumoniae, read-out: MIC S. pn.
  MIC: 12.5 µg/mL (≈ 37.6 µM)
[8]
  MIC: > 200 µg/mL
[9]
  MIC: 25 µg/mL (≈ 75.2 µM)
[10]; H37RV, read-out: MIC H37Rv
  MIC: 100 µg/mL (≈ 301 µM)
[10]; read-out: MIC TN022
  MIC: 200 µg/mL (≈ 602 µM)
[10]; read-out: MIC TN026
  MIC: 200 µg/mL (≈ 602 µM)
[11]
  zone of inhibition at 4 µg/disc: 13 to 14 mm
[12]
  MIC: 50 to 100 µg/mL (≈ 150 to 301 µM)
[13]
  MIC: 25 µg/mL (≈ 75.2 µM)
[14]
  MIC: 25 µg/mL (≈ 75.2 µM)
[15]
  MIC: 25 to 50 µg/mL (≈ 75.2 to 150 µM)
[16]
  MIC: 50 µg/mL (≈ 150 µM)
[17]
  MIC: > 200 µg/mL
[18]
  MIC: 3.1 to 12.5 µg/mL (≈ 9.33 to 37.6 µM)
[19]
  zone of inhibition at 4 µg/disc: 11 to 13 mm
[20]
  zone of inhibition at 4 µg/disc: 0 mm
[21]
  MIC: 12.5 µg/mL (≈ 37.6 µM)
[22]
  MIC: 50 to 100 µg/mL (≈ 150 to 301 µM)
[23]
  MIC: 3.1 to 6.3 µg/mL (≈ 9.33 to 19 µM)
[24]; read-out: MIC F.t.
  MIC: 12.5 to 25 µg/mL (≈ 37.6 to 75.2 µM)
[25]; ATCC25416, Burkholderia cepacia (ATCC 25416), read-out: MIC B.c.
  MIC: 50 to 100 µg/mL (≈ 150 to 301 µM)
[25]; Burkholderia cepacia, Table 6
  MIC B.c.: 50 to 100 µg/mL
[26]; Haemophilus, ATCC49247, read-out: Zone of inhibition H.i.
  zone of inhibition at 4 µg/disc: 11 to 13 mm
[27]
  MIC: > 200 µg/mL

## CN[C@@H]1[C@H](O)[C@H](NC)[C@H]2O[C@]3(O)[C@H](O[C@@H]2[C@H]1O)O[C@H](C)C[C@@]3(O)CNCc1ccc(F)c(F)c1 [compound 12, 3′-(R)-3′-[(3,4-difluoro)benzylaminomethyl)]dihydrospectinomycin Trihydrochloride]
[2]; Stenotrophomonas maltophilia, ATCC13637, read-out: MIC S.m.
  MIC: 12.5 to 25 µg/mL
[3]
  MIC: 25 to 50 µg/mL
[4]
  MIC: > 200 µg/mL
[5]
  MIC: > 200 µg/mL
[6]
  MIC: 50 µg/mL
[7]; [34]
  MIC: 6.3 µg/mL
[8]
  MIC: ≥ 200 µg/mL
[9]
  MIC: 25 to 50 µg/mL
[10]; H37RV, read-out: MIC H37Rv
  MIC: 50 µg/mL
[11]
  zone of inhibition at 4 µg/disc: 17 mm
[12]
  MIC: ≥ 200 µg/mL
[13]
  MIC: 3.1 µg/mL
[14]
  MIC: 50 µg/mL
[15]
  MIC: 6.3 to 12.5 µg/mL
[16]
  MIC: 25 to 50 µg/mL
[17]
  MIC: > 200 µg/mL
[18]
  MIC: 12.5 to 25 µg/mL
[19]
  zone of inhibition at 4 µg/disc: 15 to 17 mm
[28]
  MIC: 100 to 200 µg/mL
[21]
  MIC: 200 µg/mL
[22]
  MIC: 50 µg/mL
[23]
  MIC: 6.3 to 12.5 µg/mL
[24]; read-out: MIC F.t.
  MIC: 3.1 to 6.3 µg/mL
[25]; [35]
  MIC: ≥ 200 µg/mL
[25]; [36]
  MIC: ≥ 200 µg/mL
[26]; [37]
  zone of inhibition at 4 µg/disc: 16 to 17 mm
[27]
  MIC: 200 µg/mL

## CN[C@@H]1[C@H](O)[C@H](NC)[C@H]2O[C@]3(O)[C@H](O[C@@H]2[C@H]1O)O[C@H](C)C[C@@]3(O)CNCc1ccccc1OC(F)(F)F [compound 10, Trihydrochloride]
[1]; BAA1407, S. pneumoniae BAA-1407, Macrolide Resistant, read-out: MIC BAA-1407
  MIC: 25 µg/mL
[1]; [29]
  MIC: 12.5 µg/mL
[1]; [30]
  MIC: 12.5 µg/mL
[1]; S. pneumoniae Daw9, PenG Resistant, read-out: MIC Daw9
  MIC: 12.5 µg/mL
[1]; [31]
  MIC: 12.5 µg/mL
[1]; [32]
  MIC: 25 µg/mL
[1]; S. pneumoniae OVA6, Macrolide Resistant, read-out: MIC OVA6
  MIC: 6.3 µg/mL
[1]; S. pneumoniae T4X, Drug Susceptible, read-out: MIC T4X
  MIC: 3.1 µg/mL
[2]; [33]
  MIC: 50 µg/mL
[3]
  MIC: 200 µg/mL
[4]
  MIC: 100 to 200 µg/mL
[5]
  MIC: > 200 µg/mL
[6]
  MIC: 200 µg/mL
[7]; [34]
  MIC: 25 µg/mL
[7]; Streptococcus pneumoniae, S. pneumoniae R6, Drug Susceptible, read-out: MIC R6
  MIC: 12.5 µg/mL
[8]
  MIC: 100 to 200 µg/mL
[9]
  MIC: 50 µg/mL
[10]; H37RV, read-out: MIC H37Rv
  MIC: 200 µg/mL
[11]
  zone of inhibition at 4 µg/disc: 0 mm
[12]
  MIC: 200 µg/mL
[13]
  MIC: 25 to 50 µg/mL
[14]
  MIC: 200 µg/mL
[15]
  MIC: 100 µg/mL
[16]
  MIC: 200 µg/mL
[17]
  MIC: > 200 µg/mL
[18]
  MIC: 25 to 50 µg/mL
[19]
  zone of inhibition at 4 µg/disc: 8 mm
[28]
  MIC: 200 µg/mL
[21]
  MIC: 200 µg/mL
[22]
  MIC: 200 µg/mL
[23]
  MIC: 50 to 100 µg/mL
[24]
  MIC: 25 µg/mL
[24]; read-out: MIC F.t.
  MIC: 25 µg/mL
[25]; [35]
  MIC: > 200 µg/mL
[25]; [36]
  MIC: > 200 µg/mL
[26]; [37]
  zone of inhibition at 4 µg/disc: 0 mm
[27]
  MIC: 200 µg/mL

From patent US10266544B2, “Aryl substituted aminomethyl spectinomycin analogs as antibacterial agents” (ST. JUDE CHILDREN'S RESEARCH HOSPITAL, INC., priority 2013, dated 2019)
